From patent US20180127374A1, “BE[…] AS OPIOID RECEPTORS MODULATORS” (Purdue Pharma L.P., priority 2012, published 2018)
Like-named read-outs stand apart in the source and are kept apart here.

Assays:
[1] = target: T1, κ opioid receptor (Homo sapiens, UniProt P41145); assay: κ-opioid receptor radioligand dose displacement binding assay; parameters: expressed in transfected cells; host or cells: HEK-293; settings: [3H]-U69,593 displacement
Experimental: Membranes from recombinant HEK-293 cells expressing the human κ opioid receptor (κ) (cloned in house) were prepared by lysing cells in ice cold hypotonic buffer (2.5 mM MgCl2, 50 mM HEPES, pH 7.4) (10 mL/10 cm dish) followed by homogenization with a tissue grinder/Teflon pestle. Membranes were collected by centrifugation at 30,000×g for 15 min at 4° C. and pellets were resuspended in hypotonic buffer to a final concentration of 1-3 mg/mL. Protein concentrations were determined using the BioRad protein assay reagent with bovine serum albumen as standard. Aliquots of κ receptor membranes were stored at […]

[2] = target: μ-opioid receptor (Homo sapiens, UniProt P35372); assay: μ-opioid receptor [35S]GTPγS functional assay; assay type: biochemical; parameters: purchased Perkin Elmer, Shelton, Conn; settings: for Emax: relative to the effect elicited by DAMGO; for EC50: μ-receptor membranes, read-out: GTPγS μ EC50
μ-opioid receptor, sequence (P35372 whole entry, species assumed): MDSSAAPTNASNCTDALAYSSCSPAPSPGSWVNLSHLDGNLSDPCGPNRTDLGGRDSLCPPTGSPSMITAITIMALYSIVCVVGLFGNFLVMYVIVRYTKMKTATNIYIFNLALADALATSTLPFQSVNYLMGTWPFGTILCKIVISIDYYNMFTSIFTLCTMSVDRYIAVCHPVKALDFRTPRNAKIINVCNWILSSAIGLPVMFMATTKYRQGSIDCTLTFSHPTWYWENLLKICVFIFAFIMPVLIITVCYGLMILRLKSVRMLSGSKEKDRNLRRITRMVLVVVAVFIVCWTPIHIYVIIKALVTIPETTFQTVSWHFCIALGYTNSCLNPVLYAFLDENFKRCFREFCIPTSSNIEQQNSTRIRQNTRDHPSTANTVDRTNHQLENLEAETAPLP
Experimental: [^35S]GTPγS functional assays were conducted using freshly thawed μ-receptor membranes (Perkin Elmer, Shelton, Conn.). Assay reactions were prepared by sequentially adding the following reagents to binding buffer (100 mM NaCl, 10 mM MgCl2, 20 mM HEPES, pH 7.4) on ice (final concentrations indicated): membrane protein (0.026 mg/mL), saponin ([…]), GDP ([…]) and [^35S]GTPγS (0.20 nM; Perkin Elmer, Shelton, Conn.). The prepared membrane solution (190 μl/well) was transferred to 96-shallow well polypropylene plates containing 10 μI of 20× concentrated stock solutions of the agonist [D-Ala^e, N-methyl-Phe^4 Gly-ol^5]-enkephalin (DAMGO) prepared in dimethyl sulfoxide (DMSO). Plates were incubated for 30 min at about 25° C. with shaking. […] Data were analyzed using the sigmoidal dose-response curve fitting functions in GraphPad PRISM v. 3.0, or an in-house function for non-linear, sigmoidal dose-response curve-fitting.
μ GTP EC50 is the concentration of a compound providing 50% of the maximal response for the compound at a μ-opioid receptor.
μ GTP Emax (%) is the maximal effect elicited by a compound relative to the effect elicited by DAMGO, a standard μ agonist. Generally, the μ GTP Emax (%) value measures the efficacy of a compound to treat or prevent pain or other Conditions.

[3] = target: T1, κ opioid receptor; assay: κ-opioid receptor [35S]GTPγS functional assay; assay type: biochemical; parameters: expressed in transfected cells; settings: for Emax: relative to the effect elicited by U69,593; for EC50: κ membrane protein (in-house), read-out: GTPγS κ EC50
Experimental: Functional [^35S]GTPγS binding assays were conducted as follows. κ opioid receptor membrane solution was prepared by sequentially adding final concentrations of 0.026 μg/μl κ membrane protein (in-house), 10 μg/mL saponin, 3 μM GDP and 0.20 nM [^35S]GTPγS to binding buffer (100 mM NaCl, 10 mM MgCl2, 20 mM HEPES, pH 7.4) on ice. The prepared membrane solution (190 μl/well) was transferred to 96-shallow well polypropylene plates containing 10 μl of 20× concentrated stock solutions of agonist prepared in DMSO. Plates were incubated for 30 min at a temperature of about 25° C. with shaking.
κ GTP EC50 is the concentration of a compound providing 50% of the maximal response for the compound at a κ receptor.
κ GTP Emax (%) is the maximal effect elicited by a compound relative to the effect elicited by U69,593.

[4] = HEK-293 membranes, read-out: Ki (nM) Opioid Receptor κ

T1 sequence (P41145 whole entry): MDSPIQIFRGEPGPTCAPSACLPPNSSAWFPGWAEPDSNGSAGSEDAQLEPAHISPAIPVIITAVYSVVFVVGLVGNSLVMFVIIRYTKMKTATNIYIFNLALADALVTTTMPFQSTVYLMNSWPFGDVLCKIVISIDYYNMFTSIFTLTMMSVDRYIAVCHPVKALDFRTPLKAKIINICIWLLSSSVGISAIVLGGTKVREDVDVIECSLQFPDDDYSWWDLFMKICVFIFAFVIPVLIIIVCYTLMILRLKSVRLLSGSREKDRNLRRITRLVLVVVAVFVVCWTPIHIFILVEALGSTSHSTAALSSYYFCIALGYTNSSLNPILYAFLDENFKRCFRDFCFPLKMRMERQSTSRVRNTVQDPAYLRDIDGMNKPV

SMILES | Ki [1, 4] | Emax [2] | EC50 [2] | Emax [3] | EC50 [3] | EC50 ([2]; μM) | Ki ([1]; μM, read-out: Ki Opioid Receptor κ)
COc1ccc2c(c1)[C@]1(CCNC(=O)c3ccc(C(=O)O)cc3)CCN(CC3CC3)[C@H](C2)[C@@H]1C [Compound 25, 4-((2-((2R,6R,11R)-3-(cyclopropylmethyl)-8-methoxy-11-methyl-1,2,3,4,5,6-hexahydro-2,6-methanobenzo[d]azocin-6-yl)ethyl)carbamoyl)benzoic acid] | 479 ± 36.3 nM | 104% | 0.584 µM | 69.3% | 2410 nM |  | 
C[C@H]1[C@H]2Cc3ccc(O)cc3[C@@]1(CCNC(=O)CN)CCN2CC1CC1 [Compound 31] | 0.07 ± 0.01 nM | 102% | 0.00287 µM | 90.3% | 1.2 nM |  | 
COc1ccc2c(c1)[C@]1(CCOc3ccc(C(=O)O)cc3)CCN(CC3CC3)[C@H](C2)[C@@H]1C [Compound 27, 4-(2-((2R,6S,11R)-3-(cyclopropylmethyl)-8-methoxy-11-methyl-1,2,3,4,5,6-hexahydro-2,6-methanobenzo[d]azocin-6-yl)ethoxy)benzoic acid] | 330 ± 70.1 nM | 94.7% | 0.245 µM | 88.3% | 3690 nM |  | 
C[C@H]1[C@H]2Cc3ccc(O)cc3[C@]1(CCNC(=O)CN(C)C)CCN2CC1CC1 [Compound 30, N-(2-((2R,6R,11R)-3-(cyclopropylmethyl)-8-hydroxy-11-methyl-1,2,3,4,5,6-hexahydro-2,6-methanobenzo[d]azocin-6-yl)ethyl)-2-(dimethylamino)acetamide] | 0.05 ± 0.02 nM | 82.2% | 0.00485 µM | 96.5% | 1.77 nM |  | 
COc1ccc2c(c1)[C@@]1(CC(=O)N[C@@H](C)C(N)=O)CCN(CC3CC3)C(C2)[C@@H]1C [Compound 7, (2S)-2-(2-((6R,11R)-3-(cyclopropylmethyl)-8-methoxy-11-methyl-1,2,3,4,5,6-hexahydro-2,6-methanobenzo[d]azocin-6-yl)acetamido)propanamide] | 193 ± 68.7 nM |  |  | 29.7% | 5000 nM | > 20 µM | 
COc1ccc2c(c1)[C@]1(CCNC(=O)c3cccc(C(=O)O)c3)CCN(CC3CC3)[C@H](C2)[C@@H]1C [Compound 24, 3-((2-((2R,6R,11R)-3-(cyclopropylmethyl)-8-methoxy-11-methyl-1,2,3,4,5,6-hexahydro-2,6-methanobenzo[d]azocin-6-yl)ethyl)carbamoyl)benzoic acid] | 130 ± 26.5 nM | 76.3% | 0.251 µM | 88.7% | 664 nM |  | 
COc1ccc2c(c1)[C@@]1(CC(=O)O)CCN(CC3CC3)C(C2)[C@@H]1C [Compound 5, 2-((6R,11R)-3-(cyclopropylmethyl)-8-methoxy-11-methyl-1,2,3,4,5,6-hexahydro-2,6-methanobenzo[d]azocin-6-yl)acetic acid] | 4460 ± 1850 nM |  |  |  |  | > 20 µM | 
COc1ccc2c(c1)[C@@]1(CC(=O)O)CCN(CC3CC3)[C@@H](C2)[C@H]1C [Compound 29, 2-((2S,6R,11S)-3-(cyclopropylmethyl)-8-methoxy-11-methyl-1,2,3,4,5,6-hexahydro-2,6-methanobenzo[d]azocin-6-yl)acetic acid] |  | 24.8% | 0.346 µM |  |  |  | > 20000 nM
C[C@H]1[C@H]2Cc3ccc(O)cc3[C@]1(CCOc1ccc(C(=O)O)cc1)CCN2CC1CC1 [Compound 28, 4-(2-((2R,6S,11R)-3-(cyclopropylmethyl)-8-hydroxy-11-methyl-1,2,3,4,5,6-hexahydro-2,6-methanobenzo[d]azocin-6-yl)ethoxy)benzoic acid] | 5.75 ± 1.04 nM | 86.3% | 0.00592 µM | 110% | 39.1 nM |  | 
